# Test results as given in patent US20190216831A1 (priority 2015, published 2019).
# Legend:
# EIAVWYO [1] = assay: EIAV replication kinetics in equine dermal cells, RT qPCR of culture supernatants; type: cell-based, Equine infectious anemia virus; conditions: for EIAV viral replication decreased to (from 10^8) / EIAV viral replication reduced to (from 10^8): 10 μM; for EIAV viral replication decreased to (from 10^8): day 15 post infection; for EIAV viral replication reduced to (from 10^8): day 15 and 20 post infection
# Description: Equine dermal cells (3×10^4 cells per well of a 96-well plate) were seeded and incubated in complete media (as described above for NEV infections) under 5% CO2 at 37° C., for 24 h to 72 hours prior to infection. The antiviral effect adefovir dipivoxil, as well as other are antiviral drugs approved by FDA or EMA such as Zidovudine (nucleoside reverse transcription inhibitor), Nevirapine (non-nucleoside reverse transcription inhibitor), Indinavir sulphate (a HIV-1 protease inhibitor), Darunavir Ethanolate (a HIV-1 protease inhibitor), Daclastavir (HCV NS5A inhibitor), Cyclosporin A (immunosuppressive agent) and the drug that is being evaluated in pre-clinical/clinical assays as antivirals, such as Tenofovir (a nucleoside reverse transcription inhibitor), was evaluated (FIGS. 4A and 4B).
# The drugs mentioned above were also tested as antivirals for EIAV. For that cells were pre-treated with drugs at two different concentrations 1 or 10 μM for 1 hour in triplicates. Cells were then infected with EIAVWYO (3 MOI for 2 hours). After infection fresh media and drugs were replaced and cells incubated for 5, 10, 15 and 20 days. The EIAVWYO replication was evaluated by quantifying EIAV viral genome in culture supernatants by means of RT qPCR. FIGS. 4A and 4B show the effect of the different drugs in EIAV replication kinetics. […] Virus was only recovered at low levels from treated cells in one of three replicate at day 5 (10 viral particles/mL) and another of three replicates at day 15 (100 viral particles/mL). The differences observed between the treated and not treated infected cells were statistically significant for p<0.001.
# NEV [2] = assay: Antiviral drug screen: PrestoBlue cell viability of NEV-infected Equine Dermal cells; type: cell-based, New Equine Virus; conditions: ED cells, 9 days
# Text: (§1) Complete media was composed of DMEM medium (Gibco, Life Technologies) with 10% Inactivated Fetal bovine serum (Gibco, Life Technologies), 1% Glutamax (Gibco, Life Technologies) and 1% Penicillin-Streptamicin (Gibco, Life Technologies).
# The antiviral effect of adefovir dipivoxil, as well as other are antiviral drugs approved by FDA or EMA such as Zidovudine (nucleoside reverse transcription inhibitor), Nevirapine (non-nucleoside reverse transcription inhibitor), Indinavir sulphate (a HIV-1 protease inhibitor), Darunavir Ethanolate (a HIV-1 protease inhibitor), Daclastavir (HCV NS5A inhibitor), Cyclosporin A (immunosuppressive agent) and the drug that is being evaluated in pre-clinical/clinical assays as antivirals, such as Tenofovir (a nucleoside reverse transcription inhibitor), was evaluated (FIGS. 4A and 4B). Cells were pre-treated with drugs at 1 or 10 μM in quintuplicates for one hour and infected with NEV (1130 PFU per well) for 2 hours. After 2 hours fresh media with drugs was replaced. Cells were then incubated for 9 days in a humid chamber 37° C. and 5% CO2. After 9 days cellular viability of treated cells was compared to those of non infected cells and infected and not treated cells by using PrestoBlue cell viability reagent. […]
# NEV [3] = assay: Dose response: PrestoBlue cell viability of NEV-infected ED cells; type: cell-based, New Equine Virus
# Description: as §1
# (Selleckchem, Germany). The pre-treatment with adefovir dipivoxil (Selleckchem, Germany) preceded the infection. To determine drug IC50 ten 1:2 serial dilutions ranging from 5 to 2560 nM concentrations were performed in quintuplicates for each drug concentration. ED cells were pre-treated with drug for 60 minutes before infection, and treatment maintained during infection. NEV viral particles (10 μl containing 1130 PFU) were added to the cell culture media for 2 hours. […] Eleven days after infection, cells were screened for viability by using the PrestoBlue cell viability assay (Molecular Probes, Life Technologies) accordingly to manufacturer instructions. Absorbance (570 nm) of adefovir dipivoxil treated cells was compared to those of non-infected and/or untreated NEV-infected cells.
# NEV [4] = assay: Dose response: PrestoBlue cell viability of NEV-infected equine macrophage cell line (MacF); type: cell-based, New Equine Virus
# Description: An equine macrophage cell line (MacF) was spontaneously immortalized from a NEV-seropositive horse accordingly the procedures reported in Fidalgo-Carvalho et. al, 2009.
# Cells were incubated 24 to 72 hours before NEV infection until 95%-99% confluent cell monolayers were attained.
# (Selleckchem, Germany), as reported above for ED cells. To determine drug IC50 in MacF cell line, eleven serial dilutions of 1:4 ranging from 0.05 nM to 28 μM were performed in quintuplicates for each drug concentration. MacF Cells were pre-treated with drug for 60 minutes before infection, and treatment was maintained during infection. NEV viral particles (10 μl containing 1130 PFU) were added to the cell culture media for 2 hours. […] Eleven days after infection, cells were screened for viability by using the PrestoBlue cell viability assay (Molecular Probes, Life Technologies) accordingly to manufacturer instructions. Absorbance (570 nm) of adefovir dipivoxil treated cells was compared to those of non-infected and/or untreated NEV infected cells.
# EIAVWYO [5] = assay: IC50 for EIAVWYO viral replication in ED cells by RT qPCR; type: cell-based; conditions: Equine infectious anemia virus, 168 h, read-out: IC50 (EIAVWYO viral replication)
# Description: Furthermore, to better evaluate the effect of the drug on EIAVWYO viral replication on ED cells, we have determined the IC50 of adefovir dipivoxil. […] (Selleckchem, Germany) for 60 minutes. The pre-treatment with Adefovir dipivoxil (Selleckchem, Germany) preceded the infection. Eleven serial dilutions ranging from 0.01 to 10,000 nM (0.01, 19.53, 39.06, 78.130, 156.250, 312.5, 625, 1250, 2500, 5000 and 10000 nM) were performed in triplicates for each drug concentration. Treatment was maintained during infection. EIAVWYO viral particles (10 μl containing 1.9×10^5 viral particles) were added in each well of a 96-well plate and incubated for 2 hours. […] For quantification, a standard curve of an EIAV plasmid DNA was used. To obtain the standard curve, seven 1:10 dilutions in duplicates were tested in parallel. Samples were tested in triplicates. The standard curve obtained (with R^2 0.994, Efficiency 96.56%) allowed us to quantify the viral particles.
# [6] = Cytotoxicity (CC50) in MacF macrophage cell line, PrestoBlue; type: cell-based; conditions: horse (equine), MacF cells, treated for 7 days
# Text: (Selleckchem, Germany) for 7 days.
# EHV-1 [7] = assay: EHV-1 viral particles in supernatant of ED cells by qPCR; type: cell-based, Equine herpesvirus 1; conditions: Equus caballus, 72 h, day 3 post infection
# Description: (Selleckchem, Germany). The pre-treatment with the drug preceded the infection.
# A standard curve of an EHV-1 synthetic DNA was used. To obtain the standard curve, seven 1:10 dilutions of the synthetic DNA in duplicates were tested in parallel. Samples were tested in triplicates. The standard curve obtained (with R2 0.995, Efficiency 91.7%) allowed us to quantify the EHV-1 viral particles produced into the cell culture media.
# EHV-1 [8] = assay: EHV-1 viral particles in supernatant of MacF macrophage-like cells by qPCR; type: cell-based, Equine herpesvirus 1; conditions: Equus caballus, 72 h, day 3 post infection
# Description: (§2) Antiviral activity of Adefovir dipivoxil was also evaluated in macrophage like cell lines. […] (Selleckchem, Germany). The pre-treatment with the drug preceded the infection.
# (§3) Infections studies, viral particle quantification and cell viability assays were performed as described above for antiviral assays in ED cells.
# (§4) Antiviral activity of Tenofovir disoproxil fumarate was also evaluated in macrophage like cell lines. […] (Selleckchem, Germany). The pre-treatment with the drug preceded the infection.
# (§5) EHV-1 cell infections, viral particle production and cell viability assays were assayed as described in example 5.
# EHV-1 [9] = assay: PrestoBlue cell viability of EHV-1 infected MacF macrophage-like cells; type: cell-based, Equine herpesvirus 1; conditions: Equus caballus, 144 h, day 6 post infection, average of two independent experiments
# Description: as §2, §3, §4, §5
# EHV-1 [10] = conditions: ED cells
# Description: (§6) Equine Dermal cells (ATCC CCL57) (10^5 cells/cm^2) were seeded in 96 well plates 24 to 72 hours before infection in complete media and incubated in a humid chamber at 37° C. and 5% CO2 until 95%-99% confluent monolayers were attained. Complete media was composed of DMEM medium (Gibco, Thermofisher Scientific) with 10% of Inactivated Fetal bovine serum (Gibco, Thermofisher Scientific), 1% of Glutamax (Gibco, Life Technologies) and 1% Penicilin-Streptamicin (Gibco, Thermofisher Scientific). […] (Selleckchem, Germany). The pre-treatment with the drug preceded the infection.
# (§7) ED cells were pre-treated with drug for 30 minutes before infection, and treatment maintained during infection.
# (§8) Cells were infected with EHV-1 at 1 MOI for 2 hours. Infective EHV-1 viral particles were produced in ED cells with an EHV-1 molecular clone purchased from ATCC (VR-2248). After infection cells were washed twice with HBSS to remove unbound virus and fresh complete media and fresh drug was replaced in each well. Treatment was maintained during 6 days without addition of fresh drug.
# (§9) After 6 days post-infection reazurin-based cell viability assays (PrestoBlue, Thermofisher Scientific) were used to evaluate the increased cell numbers in the same conditions as indicated above for qPCR quantification. […] 15 μl of Prestoblue reagent was added directly to the assay wells and absorbance measured at 570 nm after 24 hours of incubation with the Prestoblue reagent. All the absorbance values were corrected by removing the baseline, absorbance values of the Prestoblue reagent incubated 24 hours without cells. The results were analysed by Prism software by using the four-parameter function (log (drug) vs. response assuming a variable slope).
# (§10) Equine Dermal cells (ATCC CCL57) (10^5 cells/cm^2) were seeded in 96 well plates 24 to 72 hours before infection in complete media and incubated in a humid chamber at 37° C. and 5% CO2 until 95%-99% confluent monolayers were attained. Complete media was composed of DMEM medium (Gibco, Thermofisher Scientific) with 10% of Inactivated Fetal bovine serum (Gibco, Thermofisher Scientific), 1% of Glutamax (Gibco, Thermofisher Scientific) and 1% Penicilin-Streptamicin (Gibco, Thermofisher Scientific). […] (Selleckchem, Germany). The pre-treatment with the drug preceded the infection.
# EHV-1 [11] = assay: cells; conditions: Equus caballus, 144 h, read-out: IC50 for EHV-1 by cell viability
# Description: as §6, §7, §8, §9, §10
# in vitro = conditions: horse (equine)
# Description: For that, ED cells (10^5 cells/cm^2) were seeded as mentioned above in 96-well plates. […] To determine drug CC50, twelve different concentrations of 4, 6, 9, 13.5, 20.250, 30.370, 45.560, 68.340, 102.520, 153.770, 230.660 and 2000 μM were performed in quintuplicates per each drug concentration. Cell viability was assessed by using the PrestoBlue reagent as mention above for IC50 analysis and incubated for 24 hours.
# For that, ED cells (10^5 cells/cm^2) were seeded as mentioned above in 96-well plates. […] To determine drug CC50, ten different 1:1.3 serial dilutions from 25.39 to 350 μM were performed in quintuplicates per each drug concentration. Cell viability was assessed by using the PrestoBlue reagent as mention above for IC50 analysis and incubated for 24 hours.
compound,measurement,setting,value
CC(C)CN(C[C@@H](O)[C@H](Cc1ccccc1)NC(=O)O[C@H]1CO[C@H]2OCC[C@H]21)S(=O)(=O)c1ccc(N)cc1 [Darunavir],EIAV viral replication decreased to (from 10^8),EIAVWYO [1],10^3 viral particles/mL
CC(C)(C)NC(=O)[C@@H]1CN(Cc2cccnc2)CCN1C[C@@H](O)C[C@@H](Cc1ccccc1)C(=O)N[C@H]1c2ccccc2C[C@H]1O [Indinavir],EIAV viral replication decreased to (from 10^8),EIAVWYO [1],10^4 viral particles/mL
"CC(C)(C)C(=O)OCOP(=O)(COCCn1cnc2c(N)ncnc21)OCOC(=O)C(C)(C)C [adefovir dipivoxil, 9-[2-[[bis[(pivaloyloxy)methoxy]phosphinyl]-methoxy]ethyl]adenine]",cellular viability of NEV infected cells,"NEV [2]; drug at 1 or 10 μM, vs non infected and untreated infected cells",completely reverted the effect of NEV on cellular viability
same,cell viability (absorbance) compared with non-infected mock cells,"NEV [3]; 320 nM, 11 days post NEV infection",very similar absorbance values
same,IC50,"NEV [3]; Equus caballus, 264 h, 11 days after infection",0.113 µM
same,cell viability (absorbance) compared with Mock MacF cells,"NEV [4]; 14 μM, 11 days post NEV infection",very similar (or even slightly higher)
same,IC50,"NEV [4]; Equus caballus, Macrophage, 264 h, MacF cells, 11 days after infection",3.83 µM
same,effect on EIAV replication,"EIAVWYO [1]; ED cells, 1 or 10 μM, single dose, up to 20 days",blocked the EIAV replication
same,virus recovered from treated cells,"EIAVWYO [1]; day 5, one of three replicates",10 viral particles/mL
same,virus recovered from treated cells,"EIAVWYO [1]; day 15, one of three replicates",100 viral particles/mL
same,IC50,EIAVWYO [5],0.00338 µM
same,CC50 at 7 days,[6],207 µM
same,IC50,EHV-1 [7]; three independent experiments,0.00442 µM
same,IC50,EHV-1 [8]; average of three independent experiments,0.142 µM
same,IC50,EHV-1 [9],0.172 µM
same,therapeutic index (CC50/IC50) for EHV-1,EHV-1 [10],1162.3
same,IC50,EHV-1 [11],0.123 µM
same,CC50 at 6 days,in vitro; Equine Dermal (ED) cells (ATCC CCL57),142 µM
CC(C)OC(=O)OCOP(=O)(CO[C@H](C)Cn1cnc2c(N)ncnc21)OCOC(=O)OC(C)C.O=C(O)/C=C/C(=O)O [tenofovir disoproxil fumarate],IC50,EHV-1 [7]; average of four independent experiments,7.44 µM
same,IC50,EHV-1 [8]; average of two independent experiments,1.13 µM
same,IC50,EHV-1 [9],22.7 µM
same,therapeutic index (CC50/IC50) for EHV-1,EHV-1 [10],8.334
same,IC50,EHV-1 [11],14 µM
same,CC50 at 3 days,in vitro,117 µM
"C[C@H](Cn1cnc2c(N)ncnc21)OCP(=O)(O)O [tenofovir, [(2R)-1-(6-aminopurin-9-yl)propan-2-yl]oxymethylphosphonic acid]",cell viability of NEV infected cells,NEV [2]; drug at 10 μM,increased the cell viability of infected cells
same,EIAV viral replication reduced to (from 10^8),EIAVWYO [1],10^5 viral particles/mL
Cc1cn([C@H]2C[C@H](N=[N+]=[N-])[C@@H](CO)O2)c(=O)[nH]c1=O [zidovudine],EIAV viral replication reduced to (from 10^8),EIAVWYO [1],10^5 viral particles/mL
